Work on `Cc1nc(C(O)COc2ccc(CC3SC(=O)NC3=O)cc2)c(C)o1` (stereo unspecified) yielded a melting point of 223 to 224 °C.
With `COc1ccc(C=CC(=O)c2cccc(OC)c2OC)cc1F` the melting point was 79.3 to 80.2 °C.
`CN1CCN(c2ccc(N/C=C3\C(=O)NC(=O)c4ccc(-n5cccc5)cc43)cc2)CC1` showed a melting point of 239 to 240 °C.
In the case of `CC(NC(=O)c1cc(Cl)cc(Br)c1N)C1CC1` (stereo unspecified), the melting point is reported as 177 °C.
`Cc1nc(-c2cnn(-c3c(Cl)cc(C(F)(F)F)cc3Cl)n2)[nH]c1S(=O)(=O)Cl` showed a melting point of 254 to 255 °C.
For `O=S(=O)(Nc1ccccc1OCc1ccc2ccccc2n1)c1ccc(Cl)cc1`, the melting point was 129 to 130 °C.
In the case of `COn1ccn(C)c1=S`, the melting point is reported as 56.9 to 57.5 °C.
For `Oc1ccc(Nc2ccc3cc(O)ccc3c2)cc1`, the melting point was 195 to 196 °C.
Work on `Cc1ncnn1-c1ccc(N)cc1F` yielded a melting point of 106 to 108 °C.
Work on `COc1ccc2[nH]c(C(=O)NCCN(C)C)c(-c3ccccc3F)c2c1` yielded a melting point of 184 to 186 °C.
With `CCCOc1ccccc1-c1nc2cc3ncn(CC)c3cc2c(=O)[nH]1` the melting point was 212 to 214 °C.
Compound `CC(C)c1cccc(C(C)C)c1NC(=O)CN1CN(c2ccccc2)C2(CCCCC2)C1=O` has a melting point of 251 to 253 °C.
For `NC(=O)CCn1c(=S)sc2ccc(Cl)cc21`, the melting point was 215 to 217 °C.
In the case of `COC1=C(OC)CC(C)(CNCCCCc2ccc(NC(=O)c3cccc4c(=O)c5cc(F)ccc5sc34)cc2)C=C1` (stereo unspecified), the melting point is reported as 168 °C.
Work on `Cn1nc(-c2ccc(OC(F)(F)F)cc2)cc1CBr` yielded a melting point of 70 to 71 °C.
Work on `CC(C)(C)C(=O)C(Br)Oc1ccc(Cl)cc1Cl` (stereo unspecified) yielded a melting point of 70 °C.
Compound `O=S(=O)(Nc1cccc2cc(-c3nc4ccccc4s3)[nH]c12)c1cccs1` has a melting point of 201 to 202 °C.
`O=c1oc(=O)n(CC2CC2)c2ccccc12` showed a melting point of 118 to 121 °C.
Compound `Cc1ccc(Cc2cnc(CCCOc3cccc(CN4CCCCC4)c3)[nH]c2=O)cn1` has a melting point of 137 to 138 °C.
Compound `CC1(O[Si](C)(C)C(C)(C)C)CN(c2ccc([N+](=O)[O-])cc2F)C1` has a melting point of 98 to 99.5 °C.
In the case of `O=c1c(O)c(-c2ncn(Cc3ccc(F)cc3)n2)oc2ccccc12`, the melting point is reported as 260 to 262 °C.
Work on `Cc1oc(-c2ccco2)nc1COc1ccc(COc2nn(Cc3ccccc3)cc2CO)cn1` yielded a melting point of 94 to 95 °C.
`O=c1[nH]c2ccccc2n1CC1CCN(CC(O)COc2ccc(Cl)cc2)C1` (stereo unspecified) showed a melting point of 129 °C.
Compound `c1cc2[nH]ncc2cc1OC1CCCCC1` has a melting point of 144 to 146 °C.
For `CCCCCCCCCCc1ccc2c(c1)-n1c(C)nnc1C(C)N=C2c1ccccc1` (stereo unspecified), the melting point was 111 to 112 °C.
`CCCCc1ncc(/C=C(\Cc2cccs2)c2nnn[nH]2)n1Cc1ccccc1[N+](=O)[O-]` showed a melting point of 231 to 234 °C.
`COc1nc2ccccc2cc1NC(=O)N1CCN(c2cccc(C)c2C)CC1` gave a melting point of 174 to 175 °C.
`CSc1nnc(-c2ccc3ncn(-c4ccc(OC(F)(F)F)cc4)c3c2)o1` showed a melting point of 200 to 201 °C.
Compound `COc1ccc(C(=O)c2ccc(-n3ccnc3)cc2)cc1OC` has a melting point of 149 to 151 °C.
In the case of `CCCc1nc2c(N)nc3cc(OCCCn4cccc4)ccc3c2s1`, the melting point is reported as 152 to 154 °C.
Compound `COc1ccc(CCN(C)C)c2[nH]c(C(F)(F)F)nc12` has a melting point of 182 to 185 °C.
Work on `CCOc1cc([C@@H](CC(=O)N(C)C)N2Cc3cccc(NCC(C)(C)C)c3C2=O)ccc1OC` yielded a melting point of 111 to 113 °C.
`O=C(N[C@H]1CC[C@H](CCN2CCN(c3nccc4c3OCC4)CC2)CC1)c1ccc(F)cc1` gave a melting point of 236 °C.
`Cc1ccc(Cl)c(Nc2ccccc2C(=O)N(O)Cc2ccccc2)c1Cl` gave a melting point of 133 to 135 °C.
Work on `CCOC(=O)CCCCCCCn1c(=O)[nH]c2ccccc2c1=O` yielded a melting point of 88 to 89 °C.
For `CCCCCCC(C)(C)c1cc(O)c2c(c1)oc(=O)c1ccc(OC)cc12`, the melting point was 149 to 151 °C.
In the case of `CCCCNC(=O)Oc1ccc(Oc2ccccc2)cc1C(=O)OC`, the melting point is reported as 53 to 56 °C.
`CN1CCC(OC2c3ccccc3CCn3cc(-c4ccc(NC(=O)C(C)(C)C)cc4)nc32)CC1` (stereo unspecified) showed a melting point of 120 °C.
With `COCCOc1cc(N(C)S(=O)(=O)c2ccccn2)c2[nH]c(C3=N[C@@H](CO)CS3)cc2c1` the melting point was 147 °C.
`CCOC(=O)COc1cccc(Br)c1CC(=O)O` showed a melting point of 181 to 183 °C.
In the case of `COc1ccc(-c2cccc3[nH]c4c(c23)CCN(Cc2ccccc2)CC4)c(C)c1`, the melting point is reported as 177 to 178 °C.
Work on `O=C(O)c1cnc(N2CCC(NS(=O)(=O)c3ccc4ccccc4c3)CC2)nc1` yielded a melting point of over 260 °C.
`O=C(c1cccs1)c1cnn2c(-c3cccc(-c4nnn(CCN5CCOCC5)n4)c3)ccnc12` showed a melting point of 103 °C.
`CC#CN(C(C)=O)c1nc2ccccc2s1` showed a melting point of 138 to 139 °C.
For `COc1ccccc1C1CC(=O)C(C(C)=O)C(=O)C1` (stereo unspecified), the melting point was 65 to 66 °C.
`CCN(CC)c1ccc(C2OC(C)(C)N=C2c2ccccc2)cc1` (stereo unspecified) gave a melting point of 104 to 105 °C.
`O=C(CCC(F)(F)Cl)Nc1ccccn1` showed a melting point of 64 to 65 °C.
With `Cc1ccc(Cl)cc1N1CCCN(C)C1=S` the melting point was 143 to 145 °C.
Compound `NC(=O)c1ccc(F)c(F)c1Cl` has a melting point of 142 to 143 °C.
In the case of `CCOC(=O)C(C)(C(=O)Nc1cc(Cl)cc(Cl)c1)S(C)=O` (stereo unspecified), the melting point is reported as 124 to 127 °C.
In the case of `Cc1c(NC(=O)CC(C)(C)C)cc2c(c1C)OC(C)(C)C2(O)CCc1ccccc1` (stereo unspecified), the melting point is reported as 99 to 100 °C.
For `O=C1OCCc2ccc([N+](=O)[O-])cc21`, the melting point was 124 to 125 °C.
With `O=CN(Cc1ccccc1)Cc1ccccc1` the melting point was 53 to 54.5 °C.
`COc1ccc(NC(=S)Nc2ccc(NNC=O)cc2)cc1` gave a melting point of 198 to 200 °C.
`COc1ccc(CN2CCc3cc(OCc4ccccc4)c(OC)cc3C2)cc1` showed a melting point of 96 to 97 °C.
Compound `COC(=O)C1=C(C)Nc2ccccc2SC1c1ccccc1` (stereo unspecified) has a melting point of 154 to 156 °C.
`CC[C@H]1C(=O)N([Si](C)(C)C(C)(C)C)[C@H]1C(=O)C=[N+]=[N-]` showed a melting point of 88 to 89 °C.
`COC(=O)C(O)=CC(=O)c1cn(Cc2ccc(F)cc2)c(=O)n(Cc2ccc(F)cc2)c1=O` showed a melting point of 171 to 173 °C.
`COc1nc2cc(Cl)c(Cl)c(N)c2nc1OC` gave a melting point of 182 to 184 °C.
Work on `CCOC(=O)c1cc(=O)c2cc(Oc3ccccc3)c(NS(C)(=O)=O)cc2o1` yielded a melting point of 155 to 156 °C.
For `CCC(NCCN)(C(=O)O)c1cccc(Cl)c1` (stereo unspecified), the melting point was 207 to 208 °C.
Compound `Nc1cccc(-c2ccc(OCC3CCN3)c3ccccc23)n1` (stereo unspecified) has a melting point of 135 to 150 °C.
`COc1ccc(CNc2ccccc2C(=O)Nc2ccc(F)c(C(F)(F)F)c2)cn1` gave a melting point of 114 to 115 °C.
`CC(=O)Nc1nc(-c2ccc(F)c3ccccc23)cc(C(C)C)n1` showed a melting point of 115 to 117 °C.
With `C=CCNC(=S)Cc1ccccn1` the melting point was 67 to 68 °C.
For `O=C(NCCO)c1cccc(-c2ccc3cnn(-c4ccc(Cl)cc4Cl)c3c2)c1`, the melting point was 191 to 192 °C.
Compound `CCOC(=O)CC(=O)c1cc2cc(F)c(F)cc2nc1Cl` has a melting point of 107 °C.
Work on `CC12CC3OC3CC1CCC1C2CCC2(C)C(O)C(N3CCCCC3)CC12` (stereo unspecified) yielded a melting point of 153 to 165 °C.
For `C=CCC1(C(C)CC(=O)O)C(=O)NC(=O)NC1=O` (stereo unspecified), the melting point was 200 °C.
`COc1ccc(NC(=O)c2cc(OC)c(OC)c(OC)c2)cc1` gave a melting point of 160 to 161 °C.
Work on `COc1cc(OC)c(-c2cccs2)cc1C#CC(=O)c1cc(OC)c(OCC(=O)O)c(OC)c1` yielded a melting point of 192 to 194 °C.
For `CC(N=C(O)C(Cl)=C(Cl)C(=O)O)c1ccccc1` (stereo unspecified), the melting point was 62 to 65 °C.
Work on `Cc1ccc(S(=O)(=O)C2SC(=O)N(C(c3ccccc3)(c3ccccc3)c3ccccc3)C2=O)cc1` (stereo unspecified) yielded a melting point of 105 to 110 °C.
With `COc1cc(C#N)ccc1-c1cc(-c2cccc(C#N)c2)on1` the melting point was 202 to 204 °C.
`Cn1ncc(C(=O)N2CCOCC2)c1C(=O)Nc1ccn2nc(-c3cccc(F)c3)nc2c1` showed a melting point of 212 to 214 °C.
Compound `C=CCc1c(C(=O)N(C)C)cn2cc(C)nc2c1OC(=O)C(C)(C)C` has a melting point of 178 to 180 °C.
With `COc1ccc2c(N)c3ccccc3nc2c1` the melting point was 169 to 170 °C.
For `NNC(=O)c1ccn2ncnc2c1`, the melting point was 244 to 245 °C.
Work on `O=C(O)CCC(Cc1ccc(Cl)c(Cl)c1)(C(=O)C=Cc1ccc(Cl)cc1)c1ccccc1` (stereo unspecified) yielded a melting point of 155 to 156 °C.
For `CN(C)CCCOc1ccc(C[C@H](NC(=O)[C@@H]2CCCN2S(=O)(=O)c2cccs2)C(=O)O)cc1`, the melting point was over 200 °C.
Work on `Cn1c2c(c3cc(C#N)ccc31)C(=O)CCC2` yielded a melting point of 190 to 192 °C.
Compound `O=C(O)c1cn(-c2nccs2)c2nc(Cl)cc(Cl)c2c1=O` has a melting point of 264 to 266 °C.
Compound `CS(=O)(=O)c1ccc(-c2cnn(-c3cccc(Cl)c3)c(=O)c2Cc2ccccc2)cc1` has a melting point of 174 to 177 °C.
Work on `CC(C)(O)C#Cc1ccc(-c2ccc(F)cc2)cc1` yielded a melting point of 118 °C.
Compound `C1=C2NCCCN2Cc2ccccc2C1c1ccccc1` (stereo unspecified) has a melting point of 227 to 228 °C.
`CCCCC1c2ccccc2-c2cc(Br)ccc2N1S(=O)(=O)c1ccc(OC)cc1` (stereo unspecified) showed a melting point of 108 to 111 °C.
For `COc1cccc(Cl)c1C1SC(=O)NC1=O` (stereo unspecified), the melting point was 195 to 197 °C.
Work on `O=C1OC(=O)c2cc(C(F)(F)F)ccc21` yielded a melting point of 54 °C.
In the case of `CS(=O)(=O)c1cccc(NC(=O)c2cnn3c(C(F)(F)F)cc(-c4ccc(C(F)(F)F)c(F)c4)nc23)c1`, the melting point is reported as 246 °C.
`CC(C)NC(=O)C(O)C(Oc1ccccc1)c1ccc(Cl)cc1` (stereo unspecified) showed a melting point of 175 to 177 °C.
Work on `O=[N+]([O-])c1ccc(-c2nc3cc(OCc4ccccc4)ccc3s2)c(Cl)c1` yielded a melting point of 156 to 157 °C.
With `Fc1ccc2c(N3CCN(CCCCn4cc5ccccc5c4)CC3)csc2c1` the melting point was 118 to 120 °C.
For `C[C@@H]1Cc2cc([N+](=O)[O-])ccc2N1`, the melting point was 63 to 64 °C.
In the case of `CCCN(CCC)C(=O)CN(C(=O)CN1C(=O)c2ccccc2C1=O)c1ccccc1`, the melting point is reported as 130 °C.
Compound `Cc1nccn1CC1CCc2c(c3ccccc3n2C)/C1=N/OC(=O)c1cccc(C#N)c1` (stereo unspecified) has a melting point of 160 to 166 °C.
Work on `O=C1CCCc2c(-c3ccncc3)sc(-c3ccncc3)c21` yielded a melting point of 157 to 160 °C.
For `COc1ccc(Nc2ncccc2NS(=O)(=O)c2ccc(OC)cc2)cc1`, the melting point was 145 to 147 °C.
Work on `COc1cc(CO)c(OC)c(C)c1C` yielded a melting point of 71 to 72 °C.
Compound `COc1ccc(C2=CNC(=O)NC2)cc1OC1Cc2ccccc2C1` has a melting point of 198 to 201 °C.
`CS(=O)(=O)Nc1ccc(Cn2c(=O)n(Cc3ccc(C(F)(F)F)cc3)c3ccccc32)cc1` showed a melting point of 193 to 197 °C.
`COc1ccccc1-c1cn(N=Cc2ccccc2)c(N)n1` gave a melting point of 166 to 167 °C.

— a melting point compilation (Tetko et al.; mined from patent text by program, amines drawn as free bases though some values may be those of a salt)
